Test results: ChEMBL document CHEMBL3885861, “Open TG-GATES”

Organism: Rattus norvegicus
Assay: Open TG-GATES - Regimen: Single
Assay type: toxicity, organism-based, Sprague-Dawley
Parameters: regimen Single, gender Male, age 6 weeks
Details: in vivo, po, 0 mg/kg, route gavage, dose level Control; for APTT / Bas / Eos / Fbg / Hb / Ht / Lym / MCH / MCHC / MCV / Mono / Neu / PT / Plat / RBC / Ret / WBC: tissue Blood; for KIDNEY_L / KIDNEY_R / KIDNEY_TOTAL: tissue Kidney; for LIVER: tissue Liver; for A/G / ALP / ALT / AST / BUN / CRE / Ca / Cl / DBIL / GLC / IP / K / LDH / Na / PL / RALB / TBIL / TC / TG / TP / gamma-GTP: tissue Plasma

COC1=CC(=O)C[C@@H](C)[C@]12Oc1c(Cl)c(OC)cc(OC)c1C2=O [GRISEOFULVIN]
TERMINAL_BW (3 h): 211.3 g | APTT (3 h): 21.6 s | Bas (3 h): 0% | Eos (3 h): 0.4% | Fbg (3 h): 224.4 mg/dL | Hb (3 h): 13.4 g/dL | Ht (3 h): 39.4% | Lym (3 h): 76% | MCH (3 h): 21.7 pg | MCHC (3 h): 34.1% | MCV (3 h): 63.5 fL | Mono (3 h): 3% | Neu (3 h): 19.6% | PT (3 h): 12.9 s | Plat (3 h): 119.6 x10_4/uL | RBC (3 h): 620.8 x10_4/ul | Ret (3 h): 7.4% | WBC (3 h): 103.5 x10_2/uL | KIDNEY_L (3 h): 1 g | KIDNEY_R (3 h): 1 g | KIDNEY_TOTAL (3 h): 1.9 g | LIVER (3 h): 9.8 g | A/G (3 h): 1.9 | ALP (3 h): 1043.6 IU/L | ALT (3 h): 45.2 IU/L | AST (3 h): 71 IU/L | BUN (3 h): 10.8 mg/dL | CRE (3 h): 0.3 mg/dL | Ca (3 h): 10.8 mg/dL | Cl (3 h): 104.4 meq/L | DBIL (3 h): 0.2 mg/dL | GLC (3 h): 195.4 mg/dL | IP (3 h): 9.3 mg/dL | K (3 h): 4 meq/L | LDH (3 h): 129.8 IU/L | Na (3 h): 141.4 meq/L | PL (3 h): 167.6 mg/dL | RALB (3 h): 3.5 g/dL | TBIL (3 h): 0.2 mg/dL | TC (3 h): 85.8 mg/dL | TG (3 h): 97.4 mg/dL | TP (3 h): 5.4 g/dL | gamma-GTP (3 h): 1.4 IU/L | TERMINAL_BW (6 h): 210.2 g | APTT (6 h): 18.8 s | Bas (6 h): 0% | Eos (6 h): 0.8% | Fbg (6 h): 231.8 mg/dL | Hb (6 h): 13.8 g/dL | Ht (6 h): 41.1% | Lym (6 h): 79.4% | MCH (6 h): 20.9 pg | MCHC (6 h): 33.6% | MCV (6 h): 62.1 fL | Mono (6 h): 3.2% | Neu (6 h): 16% | PT (6 h): 12.7 s | Plat (6 h): 132.8 x10_4/uL | RBC (6 h): 662.4 x10_4/ul | Ret (6 h): 7.1% | WBC (6 h): 107.8 x10_2/uL | KIDNEY_L (6 h): 1 g | KIDNEY_R (6 h): 1 g | KIDNEY_TOTAL (6 h): 1.9 g | LIVER (6 h): 9 g | A/G (6 h): 1.7 | ALP (6 h): 1097.4 IU/L | ALT (6 h): 34.6 IU/L | AST (6 h): 67 IU/L | BUN (6 h): 8.6 mg/dL | CRE (6 h): 0.3 mg/dL | Ca (6 h): 10.7 mg/dL | Cl (6 h): 103.4 meq/L | DBIL (6 h): 0.098 mg/dL | GLC (6 h): 209.6 mg/dL | IP (6 h): 10 mg/dL | K (6 h): 3.9 meq/L | LDH (6 h): 157.4 IU/L | Na (6 h): 141.4 meq/L | PL (6 h): 138.8 mg/dL | RALB (6 h): 3.4 g/dL | TBIL (6 h): 0.2 mg/dL | TC (6 h): 73.4 mg/dL | TG (6 h): 63.2 mg/dL | TP (6 h): 5.4 g/dL | gamma-GTP (6 h): 1.2 IU/L | TERMINAL_BW (9 h): 209.9 g | APTT (9 h): 18.2 s | Bas (9 h): 0% | Eos (9 h): 1% | Fbg (9 h): 226 mg/dL | Hb (9 h): 13.5 g/dL | Ht (9 h): 39.7% | Lym (9 h): 72.6% | MCH (9 h): 21.4 pg | MCHC (9 h): 33.9% | MCV (9 h): 63.1 fL | Mono (9 h): 2.4% | Neu (9 h): 23.8% | PT (9 h): 12.9 s | Plat (9 h): 117.6 x10_4/uL | RBC (9 h): 628.8 x10_4/ul | Ret (9 h): 7.4% | WBC (9 h): 73.2 x10_2/uL | KIDNEY_L (9 h): 0.9 g | KIDNEY_R (9 h): 0.9 g | KIDNEY_TOTAL (9 h): 1.9 g | LIVER (9 h): 8.3 g | A/G (9 h): 1.7 | ALP (9 h): 1130.6 IU/L | ALT (9 h): 32.4 IU/L | AST (9 h): 59.8 IU/L | BUN (9 h): 11 mg/dL | CRE (9 h): 0.4 mg/dL | Ca (9 h): 10.4 mg/dL | Cl (9 h): 103.6 meq/L | DBIL (9 h): 0.078 mg/dL | GLC (9 h): 206 mg/dL | IP (9 h): 10.1 mg/dL | K (9 h): 4 meq/L | LDH (9 h): 100.8 IU/L | Na (9 h): 141.8 meq/L | PL (9 h): 148.2 mg/dL | RALB (9 h): 3.5 g/dL | TBIL (9 h): 0.1 mg/dL | TC (9 h): 79.8 mg/dL | TG (9 h): 41.2 mg/dL | TP (9 h): 5.5 g/dL | gamma-GTP (9 h): 1.2 IU/L | TERMINAL_BW (24 h): 224 g | APTT (24 h): 18.9 s | Bas (24 h): 0% | Eos (24 h): 1% | Fbg (24 h): 214.4 mg/dL | Hb (24 h): 13 g/dL | Ht (24 h): 39.3% | Lym (24 h): 79.2% | MCH (24 h): 21.6 pg | MCHC (24 h): 33% | MCV (24 h): 65.4 fL | Mono (24 h): 3% | Neu (24 h): 16.6% | PT (24 h): 12.8 s | Plat (24 h): 111.8 x10_4/uL | RBC (24 h): 601.4 x10_4/ul | Ret (24 h): 8% | WBC (24 h): 72.9 x10_2/uL | KIDNEY_L (24 h): 1.1 g | KIDNEY_R (24 h): 1 g | KIDNEY_TOTAL (24 h): 2.1 g | LIVER (24 h): 11.1 g | A/G (24 h): 1.7 | ALP (24 h): 884.4 IU/L | ALT (24 h): 37.6 IU/L | AST (24 h): 61.8 IU/L | BUN (24 h): 16 mg/dL | CRE (24 h): 0.4 mg/dL | Ca (24 h): 10.9 mg/dL | Cl (24 h): 104 meq/L | DBIL (24 h): 0.1 mg/dL | GLC (24 h): 208.8 mg/dL | IP (24 h): 7.5 mg/dL | K (24 h): 4.2 meq/L | LDH (24 h): 148.2 IU/L | Na (24 h): 141.4 meq/L | PL (24 h): 149 mg/dL | RALB (24 h): 3.4 g/dL | TBIL (24 h): 0.2 mg/dL | TC (24 h): 78 mg/dL | TG (24 h): 119.8 mg/dL | TP (24 h): 5.4 g/dL | gamma-GTP (24 h): 1.2 IU/L
